Assays:
[1] = target: Sodium-dependent serotonin transporter (Homo sapiens) (UniProt P31645); settings: Compound concentration 10.0 uM
[2] = target: T1, Free fatty acid receptor 1 (Homo sapiens, UniProt O14842); test: FFAR1 binding assay
[3] = target: T1, Free fatty acid receptor 1; test: FLIPR functional assay (Ca influx activity of CHO cells)
[4] = target: Neuromedin-K receptor (Homo sapiens) (UniProt P29371); test: Tachykinin NK3 Eurofins-Panlabs radioligand binding assay; set-up: ligand concentration 0.8 nM; settings: Compound concentration 10.0 uM
Rattus norvegicus [5] = organism: Rattus norvegicus; settings: Compound concentration 10.0 uM
Homo sapiens [6] = organism: Homo sapiens; test: Cholecystokinin CCK2 (CCKB) Eurofins-Panlabs radioligand binding assay; set-up: ligand concentration 0.072 nM, non-specific ligand with concentration 1 µM Sincalide, incubation time 3 h, incubation temperature 25 °C; settings: Compound concentration 10.0 uM
[7] = target: Cannabinoid receptor 1 (Homo sapiens) (UniProt P21554); test: Cannabinoid CB1 Eurofins-Panlabs radioligand binding assay; settings: Compound concentration 10.0 uM
Sequence of Cannabinoid receptor 1 (Homo sapiens) (P21554 whole entry): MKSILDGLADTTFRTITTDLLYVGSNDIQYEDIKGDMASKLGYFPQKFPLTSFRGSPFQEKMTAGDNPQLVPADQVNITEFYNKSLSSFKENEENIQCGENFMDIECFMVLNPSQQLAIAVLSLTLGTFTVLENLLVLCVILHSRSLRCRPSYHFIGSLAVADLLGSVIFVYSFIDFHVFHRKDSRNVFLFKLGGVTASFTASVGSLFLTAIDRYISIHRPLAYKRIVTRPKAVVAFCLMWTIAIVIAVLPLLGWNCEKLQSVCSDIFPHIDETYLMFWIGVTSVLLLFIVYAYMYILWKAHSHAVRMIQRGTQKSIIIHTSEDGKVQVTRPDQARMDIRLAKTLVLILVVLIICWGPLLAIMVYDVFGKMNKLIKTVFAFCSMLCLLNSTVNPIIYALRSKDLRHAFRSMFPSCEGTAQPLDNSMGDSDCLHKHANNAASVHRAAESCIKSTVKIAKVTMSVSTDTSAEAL

Homo sapiens [8] = organism: Homo sapiens; settings: Compound concentration 10.0 uM
[9] = target: Alpha-1B adrenergic receptor (Homo sapiens) (UniProt P35368); settings: Compound concentration 10.0 uM
[10] = target: 5-hydroxytryptamine receptor 2C (Homo sapiens) (UniProt P28335); settings: Compound concentration 10.0 uM
[11] = target: Glycogen synthase kinase-3 beta (Homo sapiens) (UniProt P49841); test: Protein Serine/Threonine Kinase, GSK-3β Eurofins-Panlabs enzyme assay; set-up: substrate with concentration; settings: Compound concentration 10.0 uM
[12] = target: Phosphodiesterase 3 (Homo sapiens) (UniProt Q14432+Q13370); test: Inhibition of Phosphodiesterase PDE3 at compound concentration of 10.0 uM in the Eurofins-Panlabs enzyme assay (Eurofins_assay_152000); format: protein assay; set-up: substrate with concentration 1.01 uM [3H] cAMP + cAMP, incubation time 20 min, incubation temperature 25 C; settings: Compound concentration 10.0 uM
[13] = target: Ca2+/calmodulin-dependent protein kinase II (CaM kinase II) (Rattus norvegicus) (UniProt P11275+P08413+P15791+P11730); test: Protein Serine/Threonine Kinase, Ca2+/Calmodulin-Dep.II Eurofins-Panlabs enzyme assay; settings: Compound concentration 10.0 uM
[14] = target: Mitogen-activated protein kinase 3 (Homo sapiens) (UniProt P27361); test: Inhibition of Protein Serine/Threonine Kinase, MAPK3 (ERK1) at 10 µM in the Eurofins-Panlabs enzyme assay (Eurofins_assay_171000); settings: Compound concentration 10.0 uM
[15] = target: Cannabinoid receptor 1 (Homo sapiens) (UniProt P21554); test: Inhibition of Cannabinoid CB1 at compound concentration of 10.0 uM in the Eurofins-Panlabs radioligand binding assay (Eurofins_assay_217050); set-up: ligand concentration 2 nM; settings: Compound concentration 10.0 uM
[16] = target: 5-hydroxytryptamine receptor 5A (Homo sapiens) (UniProt P47898); settings: Compound concentration 10.0 uM
Sequence of 5-hydroxytryptamine receptor 5A (Homo sapiens) (P47898 whole entry): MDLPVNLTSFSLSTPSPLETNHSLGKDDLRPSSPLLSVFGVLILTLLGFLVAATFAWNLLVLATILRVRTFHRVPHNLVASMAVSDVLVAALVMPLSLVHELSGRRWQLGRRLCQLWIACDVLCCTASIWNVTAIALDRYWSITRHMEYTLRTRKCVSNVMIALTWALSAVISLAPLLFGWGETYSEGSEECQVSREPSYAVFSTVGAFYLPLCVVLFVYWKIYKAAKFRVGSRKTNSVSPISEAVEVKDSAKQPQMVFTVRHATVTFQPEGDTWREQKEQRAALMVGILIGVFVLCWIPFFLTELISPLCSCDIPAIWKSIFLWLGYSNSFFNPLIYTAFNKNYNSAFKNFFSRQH

[17] = target: Polyunsaturated fatty acid 5-lipoxygenase (Homo sapiens) (UniProt P09917); test: Lipoxygenase 5-LO Eurofins-Panlabs enzyme assay; settings: Compound concentration 10.0 uM
Bos taurus = organism: Bos taurus; test: Phosphodiesterase PDE6 Eurofins-Panlabs enzyme assay; set-up: substrate with concentration [3H] cGMP + cGMP, incubation time 20 min, incubation temperature 25 °C; settings: Compound concentration 10.0 uM
[18] = target: Matrilysin (Homo sapiens) (UniProt P09237); test: Peptidase, Matrix Metalloproteinase-7 (MMP-7) Eurofins-Panlabs enzyme assay; set-up: substrate with concentration; settings: Compound concentration 10.0 uM
Sequence of Matrilysin (Homo sapiens) (P09237 whole entry): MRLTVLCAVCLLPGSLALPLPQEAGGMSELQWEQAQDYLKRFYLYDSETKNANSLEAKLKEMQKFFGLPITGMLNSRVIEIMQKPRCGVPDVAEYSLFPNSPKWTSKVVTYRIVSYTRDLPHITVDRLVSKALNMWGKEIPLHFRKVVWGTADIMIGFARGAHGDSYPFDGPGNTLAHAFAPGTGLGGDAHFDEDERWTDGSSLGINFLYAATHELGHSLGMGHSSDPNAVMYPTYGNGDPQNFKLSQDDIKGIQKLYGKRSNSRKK

Rattus norvegicus [19] = organism: Rattus norvegicus; test: ATPase, Ca2+ Eurofins-Panlabs enzyme assay; settings: Compound concentration 10.0 uM
[20] = target: RAC-alpha serine/threonine-protein kinase (Homo sapiens) (UniProt P31749); test: Protein Serine/Threonine Kinase, PKBα/Akt1 Eurofins-Panlabs enzyme assay; settings: Compound concentration 10.0 uM
[21] = target: Steroid 5-alpha-reductase (Rattus norvegicus) (UniProt P24008+P31214); test: Steroid 5α-Reductase Eurofins-Panlabs enzyme assay; format: protein assay; set-up: substrate with concentration; settings: Compound concentration 10.0 uM
[22] = target: Muscarinic acetylcholine receptor M3 (Homo sapiens) (UniProt P20309); settings: Compound concentration 10.0 uM
Sequence of Muscarinic acetylcholine receptor M3 (Homo sapiens) (P20309 whole entry, looked up): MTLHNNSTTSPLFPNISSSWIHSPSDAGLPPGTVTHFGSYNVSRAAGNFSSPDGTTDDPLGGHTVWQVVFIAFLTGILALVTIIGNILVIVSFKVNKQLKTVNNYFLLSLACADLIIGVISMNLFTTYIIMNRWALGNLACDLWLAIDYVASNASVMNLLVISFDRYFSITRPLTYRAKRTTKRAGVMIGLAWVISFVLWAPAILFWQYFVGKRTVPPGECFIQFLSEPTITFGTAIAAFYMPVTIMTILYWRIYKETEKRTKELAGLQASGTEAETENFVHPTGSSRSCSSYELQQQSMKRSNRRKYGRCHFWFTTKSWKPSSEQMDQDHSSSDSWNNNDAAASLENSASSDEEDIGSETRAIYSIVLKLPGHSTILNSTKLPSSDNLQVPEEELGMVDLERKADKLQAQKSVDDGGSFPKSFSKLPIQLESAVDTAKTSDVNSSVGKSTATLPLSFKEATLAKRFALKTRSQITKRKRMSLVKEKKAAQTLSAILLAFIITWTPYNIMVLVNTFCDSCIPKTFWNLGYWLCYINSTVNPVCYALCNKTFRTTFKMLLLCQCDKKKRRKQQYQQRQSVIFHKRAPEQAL

[23] = target: Beta-2 adrenergic receptor (Homo sapiens, UniProt P07550); test: GPCRScan assay: inhibition of Beta2; set-up: radioligand conc. used [nm] 0.5 - 1.0, parental cells HEK Flp-In
Sequence of Beta-2 adrenergic receptor (P07550 whole entry): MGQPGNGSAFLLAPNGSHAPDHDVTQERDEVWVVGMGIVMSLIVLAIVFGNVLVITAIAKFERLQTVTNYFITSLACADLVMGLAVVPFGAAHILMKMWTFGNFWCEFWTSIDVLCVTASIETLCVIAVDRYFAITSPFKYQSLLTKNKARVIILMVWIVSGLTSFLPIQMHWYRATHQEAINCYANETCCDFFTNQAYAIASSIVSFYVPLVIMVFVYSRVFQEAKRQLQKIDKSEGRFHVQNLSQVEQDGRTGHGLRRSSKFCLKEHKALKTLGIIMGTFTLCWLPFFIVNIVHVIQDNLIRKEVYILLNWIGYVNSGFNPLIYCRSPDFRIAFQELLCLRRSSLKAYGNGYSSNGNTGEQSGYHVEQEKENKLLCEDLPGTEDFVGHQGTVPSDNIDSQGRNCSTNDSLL

MAO-A = MAO-A (Homo sapiens, UniProt P21397); test: Inhibition of Monoamine Oxidase MAO-A at compound concentration of 10.0 uM in the Eurofins-Panlabs enzyme assay (Eurofins_assay_140010); set-up: substrate with concentration 50 uM Kynuramine, incubation time 60 min, incubation temperature 37 C; settings: recombinant human MAO-A expressed in insect Hi5 cells, probe Kynuramine, 50 uM, compound concentration 10 uM
Sequence of MAO-A (P21397 whole entry): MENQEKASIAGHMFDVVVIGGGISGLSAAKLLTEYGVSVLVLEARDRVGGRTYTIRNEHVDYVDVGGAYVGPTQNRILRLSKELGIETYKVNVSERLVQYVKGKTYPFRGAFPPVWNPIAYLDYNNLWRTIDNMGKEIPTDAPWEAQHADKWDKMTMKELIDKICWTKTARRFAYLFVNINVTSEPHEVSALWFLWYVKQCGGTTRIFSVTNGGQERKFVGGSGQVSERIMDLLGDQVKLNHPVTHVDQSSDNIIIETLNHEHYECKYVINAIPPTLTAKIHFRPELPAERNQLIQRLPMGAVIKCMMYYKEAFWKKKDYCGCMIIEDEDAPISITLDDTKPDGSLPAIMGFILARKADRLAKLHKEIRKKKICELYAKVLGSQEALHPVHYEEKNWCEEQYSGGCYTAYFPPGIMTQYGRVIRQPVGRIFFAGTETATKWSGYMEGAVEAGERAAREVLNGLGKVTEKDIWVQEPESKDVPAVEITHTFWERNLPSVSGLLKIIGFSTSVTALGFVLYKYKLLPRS

[24] = target: 5-hydroxytryptamine receptor 7 (Homo sapiens) (UniProt P34969); settings: Compound concentration 10.0 uM
Sequence of 5-hydroxytryptamine receptor 7 (Homo sapiens) (P34969 whole entry): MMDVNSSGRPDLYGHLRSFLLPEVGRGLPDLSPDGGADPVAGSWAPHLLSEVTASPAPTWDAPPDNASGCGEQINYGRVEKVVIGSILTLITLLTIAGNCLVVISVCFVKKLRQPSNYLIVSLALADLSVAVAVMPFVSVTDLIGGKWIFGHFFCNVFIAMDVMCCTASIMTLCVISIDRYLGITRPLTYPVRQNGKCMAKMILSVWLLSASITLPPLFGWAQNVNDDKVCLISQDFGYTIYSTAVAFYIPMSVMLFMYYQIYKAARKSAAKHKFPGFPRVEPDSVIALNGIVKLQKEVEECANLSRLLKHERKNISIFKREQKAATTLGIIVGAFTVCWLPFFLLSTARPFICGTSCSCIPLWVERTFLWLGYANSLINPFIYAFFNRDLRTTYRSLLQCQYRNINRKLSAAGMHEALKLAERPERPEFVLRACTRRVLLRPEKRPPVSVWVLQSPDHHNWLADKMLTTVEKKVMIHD

[25] = target: Epidermal growth factor receptor (Homo sapiens) (UniProt P00533); test: Protein Tyrosine Kinase, EGF Receptor Eurofins-Panlabs enzyme assay; set-up: substrate with concentration 10 µg/mL Poly(Glu:Tyr), incubation time 60 min, incubation temperature 25 °C; settings: Compound concentration 10.0 uM
[26] = target: Carbonic anhydrase (Homo sapiens) (UniProt P00918+P43166+P00915+P07451+P23280+O43570+Q9ULX7+Q16790+P22748+Q8N1Q1+Q9Y2D0+P35218); test: Carbonic Anhydrase Eurofins-Panlabs enzyme assay; format: protein assay; settings: Compound concentration 10.0 uM
Homo sapiens [27] = organism: Homo sapiens; test: Inhibition of Phosphodiesterase PDE4 at compound concentration of 10.0 uM in the Eurofins-Panlabs enzyme assay (Eurofins_assay_154000); format: protein assay; set-up: substrate with concentration 1.01 uM [3 H]cAMP + cAMP, incubation time 20 min, incubation temperature 25 C; settings: Compound concentration 10.0 uM
[28] = target: Neprilysin (Homo sapiens) (UniProt P08473); test: Peptidase, Metalloproteinase, Neutral Endopeptidase Eurofins-Panlabs enzyme assay; settings: Compound concentration 10.0 uM
[29] = target: Prostaglandin G/H synthase 1 (Homo sapiens) (UniProt P23219); test: Inhibition of Cyclooxygenase COX-1 at compound concentration of 10.0 uM in the Eurofins-Panlabs enzyme assay (Eurofins_assay_116020); settings: Compound concentration 10.0 uM
Sequence of Prostaglandin G/H synthase 1 (Homo sapiens) (P23219 whole entry, the tested form may be a part): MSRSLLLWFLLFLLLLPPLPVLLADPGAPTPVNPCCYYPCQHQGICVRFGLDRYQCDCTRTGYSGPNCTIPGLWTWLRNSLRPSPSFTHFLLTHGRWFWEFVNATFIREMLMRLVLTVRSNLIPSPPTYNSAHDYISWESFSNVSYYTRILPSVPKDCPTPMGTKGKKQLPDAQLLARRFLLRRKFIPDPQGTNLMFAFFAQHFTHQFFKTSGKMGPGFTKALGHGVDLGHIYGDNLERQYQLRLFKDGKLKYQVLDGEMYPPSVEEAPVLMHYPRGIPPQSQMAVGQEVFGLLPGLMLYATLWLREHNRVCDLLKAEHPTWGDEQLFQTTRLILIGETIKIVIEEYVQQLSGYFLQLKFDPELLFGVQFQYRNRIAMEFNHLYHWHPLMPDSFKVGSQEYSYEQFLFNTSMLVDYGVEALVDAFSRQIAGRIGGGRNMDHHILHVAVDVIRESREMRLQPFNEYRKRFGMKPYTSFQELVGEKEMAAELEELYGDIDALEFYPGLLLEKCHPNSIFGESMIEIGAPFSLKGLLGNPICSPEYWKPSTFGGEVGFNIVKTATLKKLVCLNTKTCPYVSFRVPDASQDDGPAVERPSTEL

[30] = target: Disintegrin and metalloproteinase domain-containing protein 17 (Homo sapiens) (UniProt P78536); test: Peptidase, Tumor Necrosis Factor-alpha Converting Enzyme (TACE) Eurofins-Panlabs enzyme assay; set-up: substrate with concentration; settings: Compound concentration 10.0 uM
[31] = target: 5-hydroxytryptamine receptor 6 (Homo sapiens) (UniProt P50406); settings: Compound concentration 10.0 uM
[32] = target: Alpha-1D adrenergic receptor (Homo sapiens) (UniProt P25100); settings: Compound concentration 10.0 uM
[33] = target: Prothrombin (Homo sapiens) (UniProt P00734); test: Peptidase, Thrombin Eurofins-Panlabs enzyme assay; set-up: substrate with concentration; settings: Compound concentration 10.0 uM
Renin (Homo sapiens) = Renin (Homo sapiens) (UniProt P00797); test: Peptidase, Renin Eurofins-Panlabs enzyme assay; settings: Compound concentration 10.0 uM
[34] = target: Phospholipase A2 (Sus scrofa) (UniProt A0A8D1VEY7); test: Phospholipase PLA2-I Eurofins-Panlabs enzyme assay; set-up: substrate with concentration; settings: Compound concentration 10.0 uM
Sequence of Phospholipase A2 (Sus scrofa) (A0A8D1VEY7 as listed by the source): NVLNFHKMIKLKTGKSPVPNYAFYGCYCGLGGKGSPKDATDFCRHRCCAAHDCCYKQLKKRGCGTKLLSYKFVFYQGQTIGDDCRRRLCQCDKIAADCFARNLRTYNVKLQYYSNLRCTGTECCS

[35] = target: 5-hydroxytryptamine receptor 2A (Homo sapiens) (UniProt P28223); settings: Compound concentration 10.0 uM
[36] = target: 3-hydroxy-3-methylglutaryl-coenzyme A reductase (Homo sapiens) (UniProt P04035); test: HMG-CoA Reductase Eurofins-Panlabs enzyme assay; settings: Rattus norvegicus; Compound concentration 10.0 uM
[37] = target: Cyclin-dependent kinase 1/cyclin B (Homo sapiens) (UniProt P06493+P14635+Q8WWL7+O95067); test: Protein Serine/Threonine Kinase, cdk1/Cyclin B Eurofins-Panlabs enzyme assay; format: protein-complex assay; settings: Compound concentration 10.0 uM
[38] = target: Xanthine dehydrogenase/oxidase (Bos taurus) (UniProt P80457); test: Xanthine Oxidase Eurofins-Panlabs enzyme assay; settings: cattle, bovine milk xanthine oxidase, probe Xanthine, 165 µM

T1 sequence (O14842 whole entry): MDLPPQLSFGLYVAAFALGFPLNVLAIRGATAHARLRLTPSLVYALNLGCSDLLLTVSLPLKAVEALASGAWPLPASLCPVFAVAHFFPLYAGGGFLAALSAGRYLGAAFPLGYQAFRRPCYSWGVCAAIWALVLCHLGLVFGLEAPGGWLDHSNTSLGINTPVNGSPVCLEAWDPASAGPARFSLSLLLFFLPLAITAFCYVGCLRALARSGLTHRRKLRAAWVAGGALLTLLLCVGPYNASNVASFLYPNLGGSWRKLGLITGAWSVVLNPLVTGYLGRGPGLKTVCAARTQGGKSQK
Sequence of Sodium-dependent serotonin transporter (Homo sapiens) (P31645 whole entry, looked up): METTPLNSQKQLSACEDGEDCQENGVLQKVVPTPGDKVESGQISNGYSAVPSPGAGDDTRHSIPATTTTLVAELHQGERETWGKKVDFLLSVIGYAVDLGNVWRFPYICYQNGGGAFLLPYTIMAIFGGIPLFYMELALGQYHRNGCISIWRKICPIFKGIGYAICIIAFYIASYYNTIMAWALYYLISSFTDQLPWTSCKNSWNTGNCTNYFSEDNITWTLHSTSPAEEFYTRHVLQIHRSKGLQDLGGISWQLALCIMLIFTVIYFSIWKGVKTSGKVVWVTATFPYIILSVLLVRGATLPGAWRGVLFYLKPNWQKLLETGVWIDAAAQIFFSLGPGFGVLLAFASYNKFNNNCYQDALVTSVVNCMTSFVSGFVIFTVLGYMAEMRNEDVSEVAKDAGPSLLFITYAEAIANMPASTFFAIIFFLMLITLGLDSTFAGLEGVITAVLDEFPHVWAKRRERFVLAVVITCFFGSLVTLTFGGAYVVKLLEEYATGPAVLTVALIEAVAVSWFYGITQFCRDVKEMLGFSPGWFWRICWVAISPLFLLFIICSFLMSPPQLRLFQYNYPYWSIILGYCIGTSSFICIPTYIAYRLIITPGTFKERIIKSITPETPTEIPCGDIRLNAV

**Q.** What does the source list for `Cc1cc(OC2CCS(=O)(=O)CC2)cc(C)c1-c1cccc(COc2ccc(C(=O)O)c(F)c2)c1`?
**A.** inhibition [1]: 2%; Ki [2]: > 10 µM (not active); EC50 [3]: > 10 µM (not active); inhibition [4]: 10%; inhibition (Rattus norvegicus [5]): 7%; inhibition (Homo sapiens [6]): 5%; inhibition [7]: -6%

**Q.** What does the source list for `Cc1cc(OC2CCS(=O)(=O)CC2)cc(C)c1-c1cccc(COc2ccc(CCC(=O)O)c(F)c2)c1`?
**A.** inhibition (Homo sapiens [8]): 1%; inhibition [9]: 0.86%; inhibition [10]: 14.1%; inhibition [11]: 19%; inhibition [12]: 3%; inhibition [13]: 44%; inhibition [14]: 30%; inhibition [15]: 8%; inhibition [16]: 13.3%; inhibition [17]: 85%; inhibition (Bos taurus): 20%; inhibition [18]: 1%; inhibition (Rattus norvegicus [19]): -1%; inhibition [20]: -1%; inhibition [21]: 19%; inhibition [22]: -0.18%; Ki [23]: > 10 µM; pKi [23]: < 5; inhibition at 60 min, 10 µM (MAO-A): 7% (not active); inhibition [24]: 2.66%; inhibition [25]: 61%; inhibition [26]: 27%; inhibition (Homo sapiens [27]): 26%; inhibition (Rattus norvegicus [5]): -4%; inhibition [28]: 4%; inhibition [29]: 14%; inhibition [30]: 36%; inhibition [31]: -7.86%; inhibition [32]: 50.8%; inhibition [33]: -1%; inhibition (Renin (Homo sapiens)): -1%; inhibition [34]: 6%; inhibition [35]: 7.36%; inhibition [36]: -5%; inhibition [37]: 14%; inhibition at 30 min, 10 µM [38]: 1% (not active)
